Data taken from patent US12325710B2, “Substituted 1,2,3,4,5,6-hexahydroazepino[4,5-b]indoles for treating brain disorders” (priority 2019, dated 2025).
Entries after “also recorded” stand apart in the source; their conditions may differ.

Columns and labels:
[1] = system: rat embryonic cortical neurons; assay: Dendritogenesis (Sholl analysis) in cultured cortical neurons; type: cell-based; conditions: 1 h treatment followed by 71 h growth; compared to vehicle (VEH)
Experimental: Embryonic rat cortical neurons were treated for a short period of time (1 h) followed by a suitable growth period (71 h) to measure the psychoplastogenic effects of the compounds described herein. […] Therefore, the effects of ibogalogs 8-17 on dendritic growth was assessed.
Dendritogenesis Experiments. For the dendritogenesis experiments conducted using cultured cortical neurons, timed pregnant Sprague Dawley rats were obtained from Charles River Laboratories (Wilmington, MA). Full culturing, staining, and analysis details were performed as previously described. (Dunlap, L. et al., 2019)

[2] = system: C57BL/6J mice; assay: Head-twitch response (HTR) assay; conditions: intraperitoneal; fumarate salts; 5-MeO-DMT 10 mg/kg as positive control
[3] = system: larval zebrafish; assay: Larval zebrafish movement activity during a battery of light and acoustic stimuli
Text: Stimuli applied over time are indicated under the heatmaps. Colors indicate bright LED light of respective colors, black traces represent the waveforms of acoustic stimuli, and gray vertical lines indicate physical tapping as secondary acoustic stimuli.
Response is […] proportional to classification accuracy; 0-20% indicates no ability and 100% indicates perfect classification. […] The solid line denotes the median and the shading denotes a 95th percentile confidence interval calculated by bootstrap. N=8 wells/condition (64 animals/condition).

[4] = system: zebrafish; assay: Zebrafish developmental toxicity assay; type: in vivo; conditions: 100 μM; 2 and 5 dpf
[5] = target: T1, 5-HT1A (Homo sapiens, UniProt P08908); assay: 5-HT1A functional assay (Gi/o-mediated cAMP inhibition); type: cell-based
T1 construct: expressed in transfected cells; host or cells: HEKT cells (GloSensor cAMP assay)
T1 sequence (P08908 1-422): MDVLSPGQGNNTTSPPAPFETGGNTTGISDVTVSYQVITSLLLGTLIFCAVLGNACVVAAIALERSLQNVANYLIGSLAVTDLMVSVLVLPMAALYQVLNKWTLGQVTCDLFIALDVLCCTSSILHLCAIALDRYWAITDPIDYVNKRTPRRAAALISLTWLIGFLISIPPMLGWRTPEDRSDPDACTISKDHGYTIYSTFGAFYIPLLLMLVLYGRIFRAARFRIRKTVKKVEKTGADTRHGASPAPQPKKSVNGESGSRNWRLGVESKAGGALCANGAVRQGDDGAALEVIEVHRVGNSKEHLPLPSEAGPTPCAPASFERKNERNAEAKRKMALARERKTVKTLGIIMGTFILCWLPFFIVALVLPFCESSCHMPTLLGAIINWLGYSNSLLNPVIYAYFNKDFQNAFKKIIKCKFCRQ
Experimental: (§1) Serotonin and Opioid Receptor Functional Assays. Functional assay screens at 5-HT and opioid receptors were performed in parallel using the same compound dilutions and 384-well format high-throughput assay platforms. Assays assessed activity at all human isoforms of the receptors, except where noted for the mouse 5-HT2A receptor. Receptor constructs in pcDNA vectors were generated from the Presto-Tango GPCR library with minor modifications. All compounds were serially diluted in drug buffer (HBSS, 20 mM HEPES, pH 7.4 supplemented with 0.1% bovine serum albumin and 0.01% ascorbic acid) and dispensed into 384-well assay plates using a FLIPR^TETRA (Molecular Devices). Every plate included a positive control such as 5-HT (for all 5-HT receptors), DADLE (DOR), salvinorin A (KOR), and DAMGO (MOR). For measurements of 5-HT2A, 5-HT2B, and 5-HT2C Gq-mediated calcium flux function, HEK Flp-In 293 T-Rex stable cell lines (Invitrogen) were loaded with Fluo-4 dye for one hour, stimulated with compounds and read for baseline (0-10 seconds) and peak fold-over-basal fluorescence (5 minutes) at 25° C. on the FLIPR^TETRA. For measurement of 5-HT6 and 5-HT7a functional assays, Gs-mediated cAMP accumulation was detected using the split-luciferase GloSensor assay in HEKT cells measuring luminescence on a Microbeta Trilux (Perkin Elmer) with a 15 min drug incubation at 25° C. […]

[6] = target: T2, hERG channels expressed in HEK293 cells (Homo sapiens, UniProt Q12809); type: cell-based; conditions: relative to ibogaine
T2 construct: expressed in transfected cells
Experimental: hERG Inhibition Studies. All experiments were conducted manually using an EPC-10 amplifier (HEKA, Lambrecht/Pfalz, Germany) at room temperature in the whole-cell mode of the patch-clamp technique. HEK-293 cells stably expressing hKv11.1 (hERG) under G418 selection were a generous gift from Craig January (University of Wisconsin, Madison). Cells were cultured in DMEM containing 10% fetal bovine serum, 2 mM glutamine, 1 mM sodium pyruvate, 100 U/mL penicillin, 100 μg/mL streptomycin, and […]. Before experiments, cells were cultured to 60-80% confluency and lifted using TrypLE and plated onto poly-L-lysine-coated coverslips. Patch pipettes were pulled from soda lime glass (micro-hematocrit tubes) and had resistances of 2-4 MO. For the external solution, normal sodium Ringer was used (160 mM NaCl, 4.5 mM KCl, 2 mM CaCl2, 1 mM MgCl2, 10 mM HEPES, pH 7.4 and 290-310 mOsm). The internal solution used was potassium fluoride with ATP (160 mM KF, 2 mM MgCl2, 10 mM EGTA, 10 mM HEPES, 4 mM NaATP, pH=7.2 and 300-320 mOsm). A 2-step pulse (applied every 10 sec) from −80 mV first to 40 mV for 2 sec and then to −60 mV for 4 sec, was used to elicit hERG currents. The percent reduction of tail current amplitude by the drugs was determined and data are shown as mean+/−SD. For all experiments, solutions of the drugs were prepared fresh from 10 mM stock solutions in DMSO. […]

[7] = system: opioid receptors (MOR, KOR, DOR); assay: Opioid receptor functional assays (Gi/o-mediated cAMP inhibition); type: cell-based, human
Experimental: as §1

[8] = system: larval zebrafish; assay: Heart rate and arrhythmia in immobilized larval zebrafish
[9] = target: T3, 5-HT2C (Homo sapiens, UniProt P28335); assay: 5-HT2C Gq-mediated calcium flux functional assay; type: cell-based
T3 sequence (P28335 33-458): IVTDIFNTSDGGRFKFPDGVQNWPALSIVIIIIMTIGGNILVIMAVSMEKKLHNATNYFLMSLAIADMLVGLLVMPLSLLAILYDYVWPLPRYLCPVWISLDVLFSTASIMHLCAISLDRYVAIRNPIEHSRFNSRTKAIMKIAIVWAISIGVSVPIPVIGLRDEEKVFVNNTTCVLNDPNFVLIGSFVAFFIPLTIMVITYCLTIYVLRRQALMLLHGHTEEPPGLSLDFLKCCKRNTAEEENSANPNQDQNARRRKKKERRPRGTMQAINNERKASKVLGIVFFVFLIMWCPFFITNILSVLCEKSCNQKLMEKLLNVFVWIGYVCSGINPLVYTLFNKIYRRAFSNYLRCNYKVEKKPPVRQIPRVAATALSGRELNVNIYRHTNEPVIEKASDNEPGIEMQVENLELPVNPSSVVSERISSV
Experimental: as §1

[10] = target: human 5-HT2A receptors (Homo sapiens, UniProt P28223); assay: 5-HT2A Gq-mediated calcium flux functional assay (human); type: cell-based
Experimental: as §1

[11] = target: mouse 5-HT2A receptors (Mus musculus, UniProt P35363); assay: 5-HT2A Gq-mediated calcium flux functional assay (mouse); type: cell-based
Experimental: as §1

[12] = target: 5-HT2B receptors (Homo sapiens, UniProt P41595); assay: 5-HT2B Gq-mediated calcium flux functional assay; type: cell-based
Experimental: Serotonin and Opioid Receptor Functional Assays. Functional assay screens at 5-HT and opioid receptors were performed in parallel using the same compound dilutions and 384-well format high-throughput assay platforms. Assays assessed activity at all human isoforms of the receptors, except where noted for the mouse 5-HT2A receptor. Receptor constructs in pcDNA vectors were generated from the Presto-Tango GPCR library with minor modifications. All compounds were serially diluted in drug buffer (HBSS, 20 mM HEPES, pH 7.4 supplemented with 0.1% bovine serum albumin and 0.01% ascorbic acid) and dispensed into 384-well assay plates using a FLIPR^TETRA (Molecular Devices). Every plate included a positive control such as 5-HT (for all 5-HT receptors), DADLE (DOR), salvinorin A (KOR), and DAMGO (MOR). For measurements of 5-HT2A, 5-HT2B, and 5-HT2C Gq-mediated calcium flux function, HEK Flp-In 293 T-Rex stable cell lines (Invitrogen) were loaded with Fluo-4 dye for one hour, stimulated with compounds and read for baseline (0-10 seconds) and peak fold-over-basal fluorescence (5 minutes) at 25° C. on the FLIPR^TETRA. For measurement of 5-HT6 and 5-HT7a functional assays, Gs-mediated cAMP accumulation was detected using the split-luciferase GloSensor assay in HEKT cells measuring luminescence on a Microbeta Trilux (Perkin Elmer) with a 15 min drug incubation at 25° C. For 5-HT1A, 5-HT1B, 5-HT1F, MOR, KOR, and DOR functional assays, Gi/o-mediated cAMP inhibition was measured using the split-luciferase GloSensor assay in HEKT cells, conducted similarly as above, but in combination with either 0.3 μM isoproterenol (5-HT1A, 5-HT1B, 5-HT1F) or 1 μM forskolin (MOR, KOR, and DOR) to stimulate endogenous cAMP accumulation. For measurement of 5-HT1D, 5-HT1E, 5-HT4, and 5-HT5A functional assays, β-arrestin2 recruitment was measured by the Tango assay utilizing HTLA cells expressing TEV fused-β-arrestin2, as described previously with minor modifications. […]

[13] = Solubility in 0.9% saline; conditions: saline or isotonic
[14] = system: C57/BL6J mice; assay: Forced swim test (FST); type: in vivo, mouse; conditions: 24 h after drug administration; TBG 50 mg/kg, ketamine 3 mg/kg i.p.
Experimental: Forced Swim Test (FST). Male C57/BL6J mice (9-10 weeks old at time of experiment, n=10 per condition) were obtained from the Jackson Lab and housed 4-5 mice/cage in a UCD vivarium following an IACUC approved protocol. After 1 week in the vivarium each mouse was handled for approximately 1 minute by a experimenter for 3 consecutive days leading up to the first FST. All experiments were carried out by the same experimenter who performed handling. During the FST, mice underwent a 6 min swim session in a clear Plexiglas cylinder 40 cm tall, 20 cm in diameter, and filled with 30 cm of 24±1° C. water. Fresh water was used for every mouse. After handling and habituation to the experimenter, drug-naïve mice first underwent a pretest swim to more reliably induce a depressive phenotype in the subsequent FST sessions. Immobility scores for all mice were determined after the pre-test and mice were randomly assigned to treatment groups to generate groups with similar average immobility scores to be used for the following two FST sessions. […] Experiments were video-recorded and manually scored offline. Immobility time—defined as passive floating or remaining motionless with no activity other than that needed to keep the mouse's head above water—was scored for the last 4 min of the 6 min trial.

T2 sequence (Q12809 whole entry): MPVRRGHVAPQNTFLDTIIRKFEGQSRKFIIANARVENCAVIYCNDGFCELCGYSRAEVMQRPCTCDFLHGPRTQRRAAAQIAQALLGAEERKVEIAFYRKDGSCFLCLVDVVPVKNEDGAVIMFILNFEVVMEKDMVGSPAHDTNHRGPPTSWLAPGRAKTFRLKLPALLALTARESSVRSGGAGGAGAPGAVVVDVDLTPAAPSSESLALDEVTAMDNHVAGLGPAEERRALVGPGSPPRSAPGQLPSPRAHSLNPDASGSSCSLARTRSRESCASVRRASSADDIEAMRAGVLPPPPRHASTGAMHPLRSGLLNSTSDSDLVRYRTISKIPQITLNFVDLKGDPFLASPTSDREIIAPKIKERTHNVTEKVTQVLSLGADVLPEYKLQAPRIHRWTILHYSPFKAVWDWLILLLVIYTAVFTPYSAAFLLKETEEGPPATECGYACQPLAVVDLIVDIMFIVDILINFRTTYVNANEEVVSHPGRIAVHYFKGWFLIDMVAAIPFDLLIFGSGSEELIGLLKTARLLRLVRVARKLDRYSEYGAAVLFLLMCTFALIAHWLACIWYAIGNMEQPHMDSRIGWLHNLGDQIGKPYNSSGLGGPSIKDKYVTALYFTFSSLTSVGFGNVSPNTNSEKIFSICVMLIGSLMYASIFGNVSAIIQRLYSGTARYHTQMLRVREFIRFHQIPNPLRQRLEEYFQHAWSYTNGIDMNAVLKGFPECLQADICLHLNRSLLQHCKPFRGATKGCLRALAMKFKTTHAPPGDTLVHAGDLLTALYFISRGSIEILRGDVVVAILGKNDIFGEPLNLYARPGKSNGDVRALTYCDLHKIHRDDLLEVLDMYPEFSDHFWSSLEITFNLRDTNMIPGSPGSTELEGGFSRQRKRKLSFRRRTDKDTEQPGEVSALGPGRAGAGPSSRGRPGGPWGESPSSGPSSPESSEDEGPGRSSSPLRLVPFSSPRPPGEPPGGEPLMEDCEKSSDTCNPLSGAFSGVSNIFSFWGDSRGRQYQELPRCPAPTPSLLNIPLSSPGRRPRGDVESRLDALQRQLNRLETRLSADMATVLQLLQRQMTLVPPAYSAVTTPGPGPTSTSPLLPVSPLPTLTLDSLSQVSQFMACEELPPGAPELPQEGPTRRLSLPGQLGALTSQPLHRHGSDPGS
mouse 5-HT2A receptors, sequence (P35363 whole entry): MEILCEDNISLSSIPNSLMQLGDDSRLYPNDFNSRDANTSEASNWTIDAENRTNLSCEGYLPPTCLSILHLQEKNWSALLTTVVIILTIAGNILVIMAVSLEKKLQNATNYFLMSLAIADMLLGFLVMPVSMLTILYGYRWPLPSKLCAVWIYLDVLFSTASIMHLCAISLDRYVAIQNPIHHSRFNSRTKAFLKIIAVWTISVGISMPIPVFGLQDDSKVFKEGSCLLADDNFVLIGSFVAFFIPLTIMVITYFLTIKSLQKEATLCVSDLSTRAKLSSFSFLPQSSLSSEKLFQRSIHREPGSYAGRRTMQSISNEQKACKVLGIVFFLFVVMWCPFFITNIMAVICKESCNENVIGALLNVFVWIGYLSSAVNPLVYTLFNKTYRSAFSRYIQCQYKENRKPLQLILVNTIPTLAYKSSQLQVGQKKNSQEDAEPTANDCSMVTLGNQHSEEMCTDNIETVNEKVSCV
human 5-HT2A receptors, sequence (P28223 whole entry): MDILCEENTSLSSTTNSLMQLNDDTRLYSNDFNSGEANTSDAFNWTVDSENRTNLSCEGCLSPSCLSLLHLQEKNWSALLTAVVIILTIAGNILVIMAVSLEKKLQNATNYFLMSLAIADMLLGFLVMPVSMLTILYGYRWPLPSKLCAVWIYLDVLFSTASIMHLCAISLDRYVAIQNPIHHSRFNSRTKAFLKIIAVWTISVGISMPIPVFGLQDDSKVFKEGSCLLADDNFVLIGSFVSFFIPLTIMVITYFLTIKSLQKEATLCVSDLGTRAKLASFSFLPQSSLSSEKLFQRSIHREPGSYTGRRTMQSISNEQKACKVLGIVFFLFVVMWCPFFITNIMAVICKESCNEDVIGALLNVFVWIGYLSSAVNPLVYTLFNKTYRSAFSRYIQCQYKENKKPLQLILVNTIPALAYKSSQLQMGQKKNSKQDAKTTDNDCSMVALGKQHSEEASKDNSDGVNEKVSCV
5-HT2B receptors, sequence (P41595 whole entry, canonical isoform): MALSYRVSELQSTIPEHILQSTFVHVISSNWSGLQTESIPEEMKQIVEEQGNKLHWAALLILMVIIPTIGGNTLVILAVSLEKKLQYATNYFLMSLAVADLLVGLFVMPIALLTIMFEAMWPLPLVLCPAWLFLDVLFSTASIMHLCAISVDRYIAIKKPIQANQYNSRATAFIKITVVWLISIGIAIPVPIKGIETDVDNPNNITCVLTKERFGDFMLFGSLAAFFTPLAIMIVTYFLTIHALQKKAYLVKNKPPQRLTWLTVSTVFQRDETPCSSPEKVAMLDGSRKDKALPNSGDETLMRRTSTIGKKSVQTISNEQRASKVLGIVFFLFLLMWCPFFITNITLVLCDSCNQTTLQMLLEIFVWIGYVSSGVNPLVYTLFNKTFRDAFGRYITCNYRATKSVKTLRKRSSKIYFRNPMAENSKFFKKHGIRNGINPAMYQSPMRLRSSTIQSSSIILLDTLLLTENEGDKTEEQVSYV

SMILES | psychoplastogenic effect on dendritic growth (Sholl analysis) [1] | hallucinogenic potential (head-twitch response) [2] | behavioral phenotype at highest concentration versus lethal control ([3]; 200 μM) | behavioral phenotype with increasing concentration versus vehicle and lethal control (eugenol, 100 μM) ([3]; 1 h treatment, concentration-response) | machine learning classification of movement responses ([3]; highest concentrations (200 μM)) | malformations, mortality, non-viable fish [4] | 5-HT1A agonist activity compared to 5-MeO-DMT [5] | fold less potent than ibogaine at hERG [6] | opioid agonist activity [7] | heart rate (bradycardia) [8] | likelihood of arrhythmias (ratio of atrium to ventricle BPM) [8] | 5-HT2C agonist activity compared to 5-MeO-DMT [9] | agonist activity at human 5-HT2A receptors [10] | agonist activity at mouse 5-HT2A receptors [11] | activity mode at 5-HT2B receptors [12] | solubility [13] | immobility in FST [14]
COc1ccc2[nH]c3c(c2c1)CCN(C)CC3 [IBG] | performed comparably to ibogaine | significantly reduced hallucinogenic potential | did not produce this phenotype | do not produce movement responses in larval zebrafish similar to a lethal concentration of eugenol | more similar to vehicle controls than to ibogaine, noribogaine, or lethal controls | significantly fewer non-viable fish than ibogaine or noribogaine treatments | weaker 5-HT1A and 5-HT2C agonist activity | approximately 10 fold | weak or no opioid agonist activity | Neither IBG nor TBG induced these undesirable phenotypes; also recorded: do not induce bradycardia | Neither IBG nor TBG induced these undesirable phenotypes | weaker 5-HT1A and 5-HT2C agonist activity | potent agonist activity | potent agonist activity | antagonists | ≥ 40 mg/mL | –
CNC1(c2ccccc2Cl)CCCCC1=O (centres unmarked) [ketamine, reference compound] | – | – | – | – | – | – | – | – | – | – | – | – | – | – | – | – | significantly reduced immobility
